Reference: PubChem BioAssay (NCI)
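Protocol summary: plate cells (96-well), add compound at 5 concentrations, incubate 48 h, interpolate endpoints linearly. At the GI50, growth is halved. TGI: concentration producing complete growth inhibition.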

What was measured:
Assay in all cases: growth of human tumour cells (NCI), 48 h
NCI-H460 lung = tested on: NCI-H460 lung
SK-MEL-28 melanoma = tested on: SK-MEL-28 melanoma
NCI-H23 lung = tested on: NCI-H23 lung
RXF 393 renal = tested on: RXF 393 renal
DMS 114 small cell lung = tested on: DMS 114 small cell lung
LXFL 529 NSCLC = tested on: LXFL 529 NSCLC
IGROV1 ovarian = tested on: IGROV1 ovarian
SK-OV-3 ovarian = tested on: SK-OV-3 ovarian
OVCAR-4 ovarian = tested on: OVCAR-4 ovarian
TK-10 renal = tested on: TK-10 renal
SK-MEL-5 melanoma = tested on: SK-MEL-5 melanoma
SK-MEL-2 melanoma = tested on: SK-MEL-2 melanoma
SW-620 colon = tested on: SW-620 colon
U251 CNS = tested on: U251 CNS
CAKI-1 renal = tested on: CAKI-1 renal
RXF-631 renal = tested on: RXF-631 renal
SF-268 CNS = tested on: SF-268 CNS
A549 NSCLC = tested on: A549 NSCLC
MALME-3M melanoma = tested on: MALME-3M melanoma
SNB-75 CNS = tested on: SNB-75 CNS
LOX IMVI melanoma = tested on: LOX IMVI melanoma
OVCAR-5 ovarian = tested on: OVCAR-5 ovarian
DLD-1 colon = tested on: DLD-1 colon
EKVX NSCLC = tested on: EKVX NSCLC
HOP-18 NSCLC = tested on: HOP-18 NSCLC
UACC-257 melanoma = tested on: UACC-257 melanoma
SNB-78 CNS = tested on: SNB-78 CNS
COLO 205 colon = tested on: COLO 205 colon
M19-MEL melanoma = tested on: M19-MEL melanoma
UO-31 renal = tested on: UO-31 renal
OVCAR-8 ovarian = tested on: OVCAR-8 ovarian
K-562 leukemia = tested on: K-562 leukemia
KM20L2 colon = tested on: KM20L2 colon
HCC-2998 colon = tested on: HCC-2998 colon
KM12 colon = tested on: KM12 colon
HOP-62 NSCLC = tested on: HOP-62 NSCLC
A498 renal = tested on: A498 renal
HCT-15 colon = tested on: HCT-15 colon
SF-539 CNS = tested on: SF-539 CNS
HOP-92 NSCLC = tested on: HOP-92 NSCLC
UACC-62 melanoma = tested on: UACC-62 melanoma
DMS 273 small cell lung = tested on: DMS 273 small cell lung
SN12C renal = tested on: SN12C renal
786-0 renal = tested on: 786-0 renal
MOLT-4 leukemia = tested on: MOLT-4 leukemia
NCI-H522 lung = tested on: NCI-H522 lung
M14 melanoma = tested on: M14 melanoma
OVCAR-3 ovarian = tested on: OVCAR-3 ovarian
XF 498 CNS = tested on: XF 498 CNS
HT29 colon = tested on: HT29 colon
SF-295 CNS = tested on: SF-295 CNS
ACHN renal = tested on: ACHN renal
HCT-116 colon = tested on: HCT-116 colon
SNB-19 CNS = tested on: SNB-19 CNS

CCC[CH2][Sn]1([CH2]CCC)[O]C(=O)C(C(C)C)N=Cc2ccccc2[O]1 (stereo not drawn)
GI50 (NCI-H460 lung): 1280 nM | TGI (NCI-H460 lung): 2570 nM | GI50 (SK-MEL-28 melanoma): 235 nM | TGI (SK-MEL-28 melanoma): 819 nM | GI50 (NCI-H23 lung): 158 nM | TGI (NCI-H23 lung): 534 nM | GI50 (RXF 393 renal): 72.2 nM | TGI (RXF 393 renal): 219 nM | GI50 (DMS 114 small cell lung): 91.8 nM | TGI (DMS 114 small cell lung): 229 nM | GI50 (LXFL 529 NSCLC): 61.7 nM | TGI (LXFL 529 NSCLC): 200 nM | GI50 (IGROV1 ovarian): 2210 nM | TGI (IGROV1 ovarian): > 100000 nM | GI50 (SK-OV-3 ovarian): 520 nM | TGI (SK-OV-3 ovarian): 1630 nM | GI50 (OVCAR-4 ovarian): 836 nM | TGI (OVCAR-4 ovarian): 2070 nM | GI50 (TK-10 renal): 272 nM | TGI (TK-10 renal): 730 nM | GI50 (SK-MEL-5 melanoma): 1070 nM | TGI (SK-MEL-5 melanoma): > 100000 nM | GI50 (SK-MEL-2 melanoma): 195 nM | TGI (SK-MEL-2 melanoma): 521 nM | GI50 (SW-620 colon): 158 nM | TGI (SW-620 colon): 318 nM | GI50 (U251 CNS): 228 nM | TGI (U251 CNS): 636 nM | GI50 (CAKI-1 renal): 136 nM | TGI (CAKI-1 renal): 470 nM | GI50 (RXF-631 renal): 166 nM | TGI (RXF-631 renal): 308 nM | GI50 (SF-268 CNS): 182 nM | TGI (SF-268 CNS): 1010 nM | GI50 (A549 NSCLC): 1590 nM | TGI (A549 NSCLC): 3140 nM | GI50 (MALME-3M melanoma): 188 nM | TGI (MALME-3M melanoma): 456 nM | GI50 (SNB-75 CNS): 235 nM | TGI (SNB-75 CNS): 776 nM | GI50 (LOX IMVI melanoma): 163 nM | TGI (LOX IMVI melanoma): 401 nM | GI50 (OVCAR-5 ovarian): 1610 nM | TGI (OVCAR-5 ovarian): 2980 nM | GI50 (DLD-1 colon): 499 nM | TGI (DLD-1 colon): > 100000 nM | GI50 (EKVX NSCLC): 402 nM | TGI (EKVX NSCLC): 1670 nM | GI50 (HOP-18 NSCLC): 668 nM | TGI (HOP-18 NSCLC): 1920 nM | GI50 (UACC-257 melanoma): 143 nM | TGI (UACC-257 melanoma): 343 nM | GI50 (SNB-78 CNS): 227 nM | TGI (SNB-78 CNS): 1230 nM | GI50 (COLO 205 colon): 213 nM | TGI (COLO 205 colon): 693 nM | GI50 (M19-MEL melanoma): 232 nM | TGI (M19-MEL melanoma): 1080 nM | GI50 (UO-31 renal): 462 nM | TGI (UO-31 renal): 1800 nM | GI50 (OVCAR-8 ovarian): > 100000 nM | TGI (OVCAR-8 ovarian): > 100000 nM | GI50 (K-562 leukemia): 171 nM | TGI (K-562 leukemia): 1040 nM | GI50 (KM20L2 colon): 1040 nM | TGI (KM20L2 colon): 2220 nM | GI50 (HCC-2998 colon): 600 nM | TGI (HCC-2998 colon): 1880 nM | GI50 (KM12 colon): 648 nM | TGI (KM12 colon): 1980 nM | GI50 (HOP-62 NSCLC): 3790 nM | TGI (HOP-62 NSCLC): > 100000 nM | GI50 (A498 renal): 1080 nM | TGI (A498 renal): > 100000 nM | GI50 (HCT-15 colon): 345 nM | TGI (HCT-15 colon): 1340 nM | GI50 (SF-539 CNS): 878 nM | TGI (SF-539 CNS): > 100000 nM | GI50 (HOP-92 NSCLC): 131 nM | TGI (HOP-92 NSCLC): 442 nM | GI50 (UACC-62 melanoma): 244 nM | TGI (UACC-62 melanoma): 693 nM | GI50 (DMS 273 small cell lung): 730 nM | TGI (DMS 273 small cell lung): 2040 nM | GI50 (SN12C renal): 288 nM | TGI (SN12C renal): 987 nM | GI50 (786-0 renal): 307 nM | TGI (786-0 renal): 1150 nM | GI50 (MOLT-4 leukemia): 236 nM | TGI (MOLT-4 leukemia): 1040 nM | GI50 (NCI-H522 lung): 44.2 nM | TGI (NCI-H522 lung): 168 nM | GI50 (M14 melanoma): 267 nM | TGI (M14 melanoma): 939 nM | GI50 (OVCAR-3 ovarian): 730 nM | TGI (OVCAR-3 ovarian): 1990 nM | GI50 (XF 498 CNS): > 100000 nM | TGI (XF 498 CNS): > 100000 nM | GI50 (HT29 colon): 907 nM | TGI (HT29 colon): 2210 nM | GI50 (SF-295 CNS): 1040 nM | TGI (SF-295 CNS): 2290 nM | GI50 (ACHN renal): 274 nM | TGI (ACHN renal): 882 nM | GI50 (HCT-116 colon): 547 nM | TGI (HCT-116 colon): 1780 nM | GI50 (SNB-19 CNS): 214 nM | TGI (SNB-19 CNS): 645 nM
